The nature of this series: in vitro. As to conditions: human, hela cells, % viability.

For orientation: viability means a read-out of living cells in per cent, often relative to untreated cells.

On to `Fc1cccc(F)c1-c1cc(Nc2ccc(N3CCOCC3)cc2)ncn1` [CBK037673], for which the viability at 28.5 h, 10 µM was 99.5%. With `C/C=C/c1ccc(OCCCn2nnc3ccccc32)c(OC)c1` [CBK269271], the viability at 28.5 h, 10 µM worked out at 86%. `O=C(O)COCC(=O)NC12CC3CC(CC(C3)C1)C2` [CBK287065]: the viability at 28.5 h, 10 µM is 97.9%. Turning to `COc1ccc(N2C(=O)CC(NNC(N)=O)C2=O)cc1` (stereo not shown) [CBK263080], the viability at 28.5 h, 10 µM was 92.1%.

Take `CC1(C)CC(=O)C2=C(C1)Nc1[nH][nH]c(=O)c1C2c1ccccn1` (stereo not shown) [CBK288463]: the viability at 28.5 h, 10 µM was found to be 92%. The same measure, in the same setting: as for `Cc1ccccc1C(=O)NCC(=O)Nc1cc2ccccc2c(Br)n1` [CBK063298], the figure is 89.4%; as for `CN(c1ncc(-c2ccccc2)cc1C(=O)NCc1ccco1)S(C)(=O)=O` [CBK076506], 86.3%. The same measure, in the same setting: with `OC1(CCCN2CCOCC2)C2CCCC1CN(Cc1ccccc1)C2` (stereo not shown) [CBK025076C] the figure was 115%; with `CC(C)Nc1cncc(SCCN(C)C)n1` [CBK105292], 90.6%; with `Cn1c(=O)n(CC(=O)OCc2ccccc2)c2cccnc21` [CBK284019], 91.1%. With `CCc1nn2c(=O)cc(CN3C(=O)COc4cccnc43)nc2s1` [CBK306599], the viability at 28.5 h, 10 µM was 88.9%. As for `c1cncc(CCNc2nccnc2-c2cccnc2)c1` [CBK037380], the viability at 28.5 h, 10 µM was found to be 93%. The same measure, in the same setting: as for `CC1CCN(C(=O)c2cccc(Cn3cc(Br)cn3)c2)CC1` [CBK058482], the figure is 91.8%. The same measure, in the same setting: with `CCCC(=O)c1ccc(S(=O)(=O)N2CCCN(Cc3ccc(F)c(C(F)(F)F)c3)CC2)cc1` [CBK062918] the figure was 93%; with `COCC(=O)N1c2ccccc2CC[C@@H]1C(=O)OC` [CBK285472], 103%; with `O=C(CSc1nc2sc3c(c2c(=O)[nH]1)CCCC3)NCCN1CCOCC1` [CBK264064], 111%. In the case of `O=C(NNc1c(Cl)cccc1Cl)C(O)(c1ccccc1)c1ccccc1` [CBK262739], the viability at 28.5 h, 10 µM (bulk resorufin, single well) stood at 101%.

As to `O=C(c1ccc(-c2nccnc2N2CCN(CCO)CC2)cc1)N1CCOCC1` [CBK036812], the viability at 28.5 h, 10 µM is 92.1%. Take `CCOC(=O)C1CCCN(C(=O)Cn2ncc(Cl)c(Cl)c2=O)C1` (stereo not shown) [CBK305573]: the viability at 28.5 h, 10 µM worked out at 47.7%. On to `CC(=O)N1CCc2sccc2C1c1ccc(NC(=O)c2cccc(F)c2)cc1` (stereo not shown) [CBK286466], for which the viability at 28.5 h, 10 µM was determined as 83.8%.

As for `CC(C)NC(=O)N(C)C1CCN(c2ncnc3ccccc23)CC1` [CBK306224], the viability at 28.5 h, 10 µM stood at 92.4%. Still for that read-out and setting: with `Clc1cncc(OC(c2ccccc2)C2CC2)n1` (stereo not shown) [CBK176042] the figure was 78%; with `CC(=O)NC(c1ccccn1)C1CCCN(C(=O)C2CC2C)C1` (stereo not shown) [CBK285032], 84.2%. As for `O=C(NNc1ccccc1)c1c(O)c2ccccc2oc1=O` [CBK260878], the viability at 28.5 h, 10 µM came to 75.1%. Still for that read-out and setting: with `CC(C)Cn1c(=O)[nH]c2ncc(-c3ccc(C(=O)NC4CCCC4)cc3)nc21` [CBK064551] the figure was 108%. For the compound `COc1c(C)cc(S(=O)(=O)NCCN2CCOCC2)c(C)c1C` [CBK269893], the viability at 28.5 h, 10 µM was determined as 94.1%.

Take `Cc1cc(C)nc(N2CCC(c3cc(CCOc4ccc(C(F)(F)F)cc4)[nH]n3)C2)n1` (stereo not shown) [CBK286073]: the viability at 28.5 h, 10 µM was 93.5%. `Cc1nc(N)sc1-c1nnc(SCC(=O)Nc2ccccc2C(F)(F)F)n1C` [CBK267359]: the viability at 28.5 h, 10 µM was 99.5%. Take `CCc1nc(CN2CCN(c3ccc4nc(C)nn4n3)CC2)cs1` [CBK306285]: the viability at 28.5 h, 10 µM is 89.1%. Turning to `Cc1cnc(C)c(N2CCN(c3cc([C@H]4C[C@@H](N)C4)ncn3)CC2)n1` [CBK307118], the viability at 28.5 h, 10 µM was determined as 88.7%. Same read-out and setting: as for `Cc1ccc(S(N)(=O)=O)cc1CNC(=O)Nc1cccc(F)c1` [CBK093516], the figure is 83.9%; as for `O=C1N=C(NC2CCCCCC2)S[C@@H]1CC1CCCCC1` [CBK070723], 95.8%. Regarding `O=C(CSc1nnc(-c2ccncc2)n1-c1ccccc1)N/N=C/c1ccccc1O` [CBK262788], the viability at 28.5 h, 10 µM turned out to be 85%. On the same count and under the same terms, as for `O=C(CCC1COc2ccccc2O1)Nc1ccc(C(=O)O)cc1` (stereo not shown) [CBK269856], the figure is 89.7%; as for `Cc1nc2c(C(=O)NCCCN3CCCC3=O)cnn2c(C)c1Cc1cccnc1` [CBK162151], 108%. As to `COc1cc2c(cc1OC)CN(S(=O)(=O)c1cc(C(=O)O)ccc1Cl)CC2` [CBK296923], the viability at 28.5 h, 10 µM was 96%.

Consider `CCN1C(=O)c2ccccc2C(=O)[C@@]2(C)CN(C(C)=O)C[C@@H]12` [CBK281686], for which the viability at 28.5 h, 10 µM stood at 89.7%.

For the compound `Cc1noc(C)c1S(=O)(=O)Nc1nc(=O)[nH]cc1F` [CBK067569], the viability at 28.5 h, 10 µM stood at 103%. With `Cc1ccc(Cl)cc1N1CCN(S(=O)(=O)N(C)C)CC1` [CBK270284], the viability at 28.5 h, 10 µM turned out to be 101%. `O=C(NC(=S)Nc1cccc(-c2nc3ccccc3s2)c1)c1cc([N+](=O)[O-])ccc1N1CCOCC1` [CBK268789]: the viability at 28.5 h, 10 µM was determined as 103%.

In the case of `O=C(Nc1cccc(-c2nc3ncccc3o2)c1)c1ccc(Cl)c([N+](=O)[O-])c1` [CBK262845], the viability at 28.5 h, 10 µM worked out at 88.8%. On the same count and under the same terms, with `COc1ccc(NS(=O)(=O)c2ccc(N3CCCC3=O)cc2)cn1` [CBK270216] the figure was 84.9%; with `C=CCNC(=O)Cn1cccc2cc(-c3ccc(OC)cc3)nc1-2` [CBK285348], 92.4%. Same read-out and setting: as for `O=C(CN1C(=O)c2ccccc2C1=O)Nc1ccccc1C(=O)N1CCN(c2ccccc2)CC1` [CBK269251], the figure is 118%; as for `c1ccc(-c2ccc(COc3cncc(N4CCNCC4)n3)s2)nc1` [CBK008960G], 85.4%. With `COc1ccc2[nH]nc(CN3CCCC(c4cc(O)nc(C)n4)C3)c2c1` (stereo not shown) [CBK306703], the viability at 28.5 h, 10 µM amounted to 87.6%. On the same count and under the same terms, as for `O=S(=O)(c1ccc2nc(-c3ccccc3)c(-c3ccc(O)cc3)nc2c1)c1ccc2nc(-c3ccccc3)c(-c3ccc(O)cc3)nc2c1` [CBK261148], the figure is 108%; as for `Cc1ccn(-c2ccc(N3CCOC4(CCCC4)C3)nn2)n1` [CBK305262], 87.9%; as for `O=C(Cc1c[nH]c2ccccc12)N1Cc2ccccc2C1` [CBK200321], 103%.

For the compound `O=c1c2ccccc2nc2n1CCN(Cc1ccc(F)cc1)CC2` [CBK284814], the viability at 28.5 h, 10 µM was 96.9%.

As to `CN(C)C(=O)CN1CCC2(C/C=C/COc3ccccc3C(=O)NC[C@@H](Cc3ccccc3)NC2=O)CC1` [CBK292185], the viability at 28.5 h, 10 µM came to 107%. Take `Cc1sc(NC(=O)CC(C)(C)CC(=O)Nc2sc(C)c(C)c2C(=O)O)c(C(=O)O)c1C` [CBK296094]: the viability at 28.5 h, 10 µM was determined as 98.7%. Still for that read-out and setting: with `Cc1nonc1NC(=O)Nc1ccncc1` [CBK260982] the figure was 94.7%. Same read-out and setting: with `S=C(Nc1cccc(Cl)c1Cl)Nc1nn(Cc2ccc(Cl)c(Cl)c2)cc1Cl` [CBK267109] the figure was 109%. Still for that read-out and setting: with `O=C1CCC(=O)N1CCOc1nccnc1N1CCN(Cc2ccc(Cl)c(Cl)c2)CC1` [CBK084287] the figure was 92.9%. Take `Cc1ccc(OCc2nc(C)c(C(=O)N3CCCC(C)C3)s2)cc1` (stereo not shown) [CBK305356]: the viability at 28.5 h, 10 µM was found to be 94.3%.

`Cn1nc(C(C)(C)C)c2cc(C(=O)N3CCn4nccc43)cnc21` [CBK305466]: the viability at 28.5 h, 10 µM was found to be 93.3%. Still for that read-out and setting: as for `O=C1S/C(=C\c2ccc(O)c([N+](=O)[O-])c2)C(=O)N1Cc1ccc(Cl)cc1` [CBK102929], the figure is 87.2%; as for `O=C(Nc1cccc2cccnc12)c1ccc([N+](=O)[O-])o1` [CBK268007], 61.1%; as for `COc1cc(CNC(=O)c2cccnc2Sc2ccc(Cl)cc2)ccn1` [CBK297755], 108%.

`Cc1ccc(SCCN2CCNCC2)cc1` [CBK266045G]: the viability at 28.5 h, 10 µM came out at 99.6%.

`Cc1nc(NCCO)c2c3c(sc2n1)CCCC3` [CBK131920]: the viability at 28.5 h, 10 µM was found to be 90.1%. On the same count and under the same terms, as for `COc1cc(NC(=O)c2ccc3c(c2)C(=O)N(Cc2ccccc2)C3=O)c(C(=O)O)cc1OC` [CBK266544], the figure is 106%; as for `Oc1nc2ccccc2nc1-c1ccccc1` [CBK016193], 94.3%; as for `CCOC(=O)c1c(C)n(-c2ccc(C)cc2)c2ccc(Oc3ncccc3C#N)cc12` [CBK261310], 109%. On the same count and under the same terms, with `Cc1cc(S)n2nc(C)c(-c3ccccc3)c2n1` [CBK288423] the figure was 99%; with `CSc1cccc(NC(=O)CN(C)S(=O)(=O)c2ccc3ccccc3c2)c1` [CBK266708], 86.2%. The same measure, in the same setting: with `O=C(O)CCC(=O)NCCCc1ccccc1` [CBK265465] the figure was 86.7%; with `CS(=O)(=O)N(CC(=O)NC1CCCCCCC1)c1ccccc1` [CBK270112], 96.1%. `N#Cc1ccccc1CSc1ncn[nH]1` [CBK027835]: the viability at 28.5 h, 10 µM amounted to 95.1%. The same measure, in the same setting: with `O=C(CSC1=NC(=O)C(Cc2ccccc2)C(=O)N1)Nc1ncccn1` (stereo not shown) [CBK263906] the figure was 120%. In the case of `Cc1cc(C)c2c(c1)COC1(CCNCC1)O2` [CBK061574], under “bulk resorufin, single well”, the viability at 28.5 h, 10 µM was determined as 100%. For the compound `COc1ccc(-c2nc(CCN)n3ccccc23)cc1` [CBK035583], the viability at 28.5 h, 10 µM was found to be 94.3%. Take `O=C(O)c1cc(C(=O)O)cc(N2C(=O)c3ccc(S(=O)(=O)c4ccc5c(c4)C(=O)N(c4cc(C(=O)O)cc(C(=O)O)c4)C5=O)cc3C2=O)c1` [CBK261336]: the viability at 28.5 h, 10 µM was determined as 100%. Consider `Cc1c(NC(=O)c2cn3c4c(c(N5CCN(C)CC5)c(F)cc4c2=O)OCN3C)c(=O)n(-c2ccccc2)n1C` [CBK263061], for which the viability at 28.5 h, 10 µM stood at 92.9%. Still for that read-out and setting: as for `O=P(O)(CCc1ccncc1)CN1CCCCC1` [CBK262323], the figure is 104%.

Consider `Oc1noc(O)c1-c1ncc(C(F)(F)F)cc1Cl` [CBK007439], for which the viability at 28.5 h, 10 µM came to 91.1%.

Take `Cn1c(=O)n(CC(N)=O)c(=O)c2c1nc1oc(C(C)(C)C)cn12` [CBK306081]: the viability at 28.5 h, 10 µM amounted to 96.5%. Consider `CCOc1nccnc1N1CCNCC1` [CBK001899G], for which the viability at 28.5 h, 10 µM turned out to be 93.1%.

The values above are taken from publication PMC12040169 (PLOS Biology, 2025).
